# According to patent publication US8609672B2, “Piperazinylpyrimidine analogues as protein kinase inhibitors” (University of the Pacific, priority 2010, dated 2013):
# What was measured:
# [1] = test system: U251; test: NCI-60 SRB growth inhibition: U251; format: cell-based, human; details: U251, CNS cancer, 48 hours treatment; for CC50: Homo sapiens, U-251, read-out: LC50 (the source's name)
# [2] = test system: HOP-62; test: NCI-60 SRB growth inhibition: HOP-62; format: cell-based, human; details: HOP-62, Non-small cell lung cancer; 48 hours treatment
# [3] = test system: SK-MEL-2; test: NCI-60 SRB growth inhibition: SK-MEL-2; format: cell-based, human; details: SK-MEL-2, Melanoma; 48 hours treatment
# [4] = test system: OVCAR-4; test: NCI-60 SRB growth inhibition: OVCAR-4; format: cell-based, human; details: OVCAR-4, Ovarian cancer, 48 hours treatment; for CC50: Homo sapiens, read-out: LC50 (the source's name)
# [5] = test system: UO-31; test: NCI-60 SRB growth inhibition: UO-31; format: cell-based, human; details: UO-31, Renal cancer; 48 hours treatment
# [6] = test system: SN12C; test: NCI-60 SRB growth inhibition: SN12C; format: cell-based, human; details: Renal cancer, 48 hours treatment; for CC50: Homo sapiens, read-out: LC50 (the source's name)
# [7] = test system: TK-10; test: NCI-60 SRB growth inhibition: TK-10; format: cell-based, human; details: TK-10, Renal cancer, 48 hours treatment; for CC50: Homo sapiens, read-out: LC50 (the source's name)
# [8] = test system: SK-MEL-5; test: NCI-60 SRB growth inhibition: SK-MEL-5; format: cell-based, human; details: SK-MEL-5, Melanoma; 48 hours treatment
# [9] = test system: SNB-19; test: NCI-60 SRB growth inhibition: SNB-19; format: cell-based, human; details: SNB-19, CNS cancer, 48 hours treatment; for CC50: Homo sapiens, read-out: LC50 (the source's name)
# [10] = test system: RXF 393; test: NCI-60 SRB growth inhibition: RXF 393; format: cell-based, human; details: RXF 393, Renal cancer, 48 hours treatment; for CC50: Homo sapiens, read-out: LC50 (the source's name)
# [11] = test system: HT29; test: NCI-60 SRB growth inhibition: HT29; format: cell-based, human; details: HT29, Colon cancer, 48 hours treatment; for CC50: Homo sapiens, HT-29, read-out: LC50 (the source's name)
# [12] = test system: HCT-116; test: NCI-60 SRB growth inhibition: HCT-116; format: cell-based; details: HCT-116, Colon cancer; 48 hours treatment
# [13] = test system: LOX 1MVI; test: NCI-60 SRB growth inhibition: LOX 1MVI; format: cell-based, human; details: Melanoma, 48 hours treatment
# [14] = test system: MDA-MB-468; test: NCI-60 SRB growth inhibition: MDA-MB-468; format: cell-based, human; details: MDA-MB-468, Breast cancer, 48 hours treatment; for CC50: Homo sapiens, read-out: LC50 (the source's name)
# [15] = test system: SF-539; test: NCI-60 SRB growth inhibition: SF-539; format: cell-based, human; details: SF-539, CNS cancer; 48 hours treatment
# [16] = test system: NCI-H23; test: NCI-60 SRB growth inhibition: NCI-H23; format: cell-based, human; details: NCI-H23, Non-small cell lung cancer; 48 hours treatment
# [17] = test system: KM12; test: NCI-60 SRB growth inhibition: KM12; format: cell-based, human; details: KM12, Colon cancer, 48 hours treatment; for CC50: Homo sapiens, read-out: LC50 (the source's name)
# [18] = test system: UACC-62; test: NCI-60 SRB growth inhibition: UACC-62; format: cell-based, human; details: UACC-62, Melanoma; 48 hours treatment
# [19] = test system: OVCAR-3; test: NCI-60 SRB growth inhibition: OVCAR-3; format: cell-based, human; details: OVCAR-3, Ovarian cancer; 48 hours treatment
# [20] = test system: SK-MEL-28; test: NCI-60 SRB growth inhibition: SK-MEL-28; format: cell-based, human; details: SK-MEL-28, Melanoma, 48 hours treatment; for CC50: Homo sapiens, read-out: LC50 (the source's name)
# [21] = test system: SK-OV-3; test: NCI-60 SRB growth inhibition: SK-OV-3; format: cell-based, human; details: SK-OV-3, Ovarian cancer; 48 hours treatment
# [22] = test system: A549/ATCC; test: NCI-60 SRB growth inhibition: A549/ATCC; format: cell-based, human; details: Non-small cell lung cancer, 48 hours treatment; for CC50: Homo sapiens, read-out: LC50 (the source's name)
# [23] = test system: SF-295; test: NCI-60 SRB growth inhibition: SF-295; format: cell-based, human; details: for CC50: Homo sapiens, SF-295, 48 h, read-out: LC50 (the source's name); for TGI: SF-295, CNS cancer, 48 hours treatment
# [24] = test system: DU-145; test: NCI-60 SRB growth inhibition: DU-145; format: cell-based, human; details: for TGI: DU-145, Prostate cancer, 48 hours treatment; for CC50: Homo sapiens, DU-145, 48 h, read-out: LC50 (the source's name)
# [25] = test system: NCI-H460; test: NCI-60 SRB growth inhibition: NCI-H460; format: cell-based, human; details: NCI-H460, Non-small cell lung cancer, 48 hours treatment; for CC50: Homo sapiens, read-out: LC50 (the source's name)
# [26] = test system: UACC-257; test: NCI-60 SRB growth inhibition: UACC-257; format: cell-based, human; details: for CC50: Homo sapiens, UACC-257, 48 h, read-out: LC50 (the source's name); for TGI: UACC-257, Melanoma, 48 hours treatment
# [27] = test system: NCI-60 cell line panel; test: NCI-60 SRB growth inhibition: mean over the panel; format: cell-based, human; details: mean over NCI-60 cell lines, 48 hours treatment; for GI50 / CC50: Homo sapiens; for CC50: read-out: Mean LC50
# [28] = test system: SF-268; test: NCI-60 SRB growth inhibition: SF-268; format: cell-based, human; details: SF-268, CNS cancer; 48 hours treatment
# [29] = test system: RPMI-8226; test: NCI-60 SRB growth inhibition: RPMI-8226; format: cell-based, human; details: RPMI-8226, Leukemia, 48 hours treatment; for CC50: Homo sapiens, read-out: LC50 (the source's name)
# [30] = test system: MDA-MB-231/ATCC; test: NCI-60 SRB growth inhibition: MDA-MB-231/ATCC; format: cell-based, human; details: Breast cancer, 48 hours treatment
# [31] = test system: OVCAR-8; test: NCI-60 SRB growth inhibition: OVCAR-8; format: cell-based, human; details: OVCAR-8, Ovarian cancer, 48 hours treatment; for CC50: Homo sapiens, read-out: LC50 (the source's name)
# [32] = test system: T-47D; test: NCI-60 SRB growth inhibition: T-47D; format: cell-based, human; details: Breast cancer, 48 hours treatment; for CC50: Homo sapiens, T47D, read-out: LC50 (the source's name)
compound,measurement,setting,value
"c1ccc(Cc2cnc(N3CCN(c4ncnc5ccccc45)CC3)nc2)cc1 [Compound 4, 4-(4-(5-benzylpyrimidin-2-yl)piperazin-1-yl)quinazoline]",CC50,[1],54.1 µM
same,TGI,[1],24.60 µM
same,TGI,[2],51.60 µM
same,TGI,[3],35.80 µM
same,CC50,[4],> 100 µM
same,TGI,[4],>100 µM
same,TGI,[5],38.40 µM
same,CC50,[6],54.8 µM
same,TGI,[6],24.40 µM
same,CC50,[7],> 100 µM
same,TGI,[7],60.80 µM
same,TGI,[8],13.90 µM
same,CC50,[9],> 100 µM
same,TGI,[9],>100 µM
same,CC50,[10],> 100 µM
same,TGI,[10],57.90 µM
same,TGI,[11],35.10 µM
same,CC50,[11],79.2 µM
same,TGI,[12],13.20 µM
same,TGI,[13],19.60 µM
same,CC50,[14],> 100 µM
same,TGI,[14],2.73 µM
same,TGI,[15],28.50 µM
same,TGI,[16],30.80 µM
same,CC50,[17],50.1 µM
same,TGI,[17],25.10 µM
same,TGI,[18],25.90 µM
same,TGI,[19],23.20 µM
same,CC50,[20],> 100 µM
same,TGI,[20],99.30 µM
same,TGI,[21],>100 µM
same,CC50,[22],> 100 µM
same,TGI,[22],35.70 µM
same,CC50,[23],> 100 µM
same,TGI,[23],26.00 µM
same,TGI,[24],30.70 µM
same,CC50,[24],79.8 µM
same,CC50,[25],55 µM
same,TGI,[25],23.70 µM
same,CC50,[26],41.4 µM
same,TGI,[26],16.80 µM
same,GI50,[27],5.24 µM
same,CC50,[27],81.3 µM
same,Mean TGI,[27],37.15 µM
same,TGI,[28],57.20 µM
same,CC50,[29],97.3 µM
same,TGI,[29],21.80 µM
same,TGI,[30],38.10 µM
same,CC50,[31],71.3 µM
same,TGI,[31],25.60 µM
same,TGI,[32],45.50 µM
same,CC50,[32],> 100 µM
"CCc1cnc(N2CCN(C(=O)c3ccc(CNc4ncnc5ccccc45)cc3)CC2)nc1 [Compound 15, (4-(5-ethylpyrimidin-2-yl)piperazin-1-yl)(4-((quinazolin-4-ylamino)methyl)phenyl)methanone]",CC50,[1],> 100 µM
same,TGI,[1],>100 µM
same,TGI,[2],>100 µM
same,TGI,[3],>100 µM
same,CC50,[4],> 100 µM
same,TGI,[4],58.80 µM
same,TGI,[5],60.50 µM
same,CC50,[6],> 100 µM
same,TGI,[6],59.00 µM
same,CC50,[7],> 100 µM
same,TGI,[7],>100 µM
same,TGI,[8],2.90 µM
same,CC50,[9],> 100 µM
same,TGI,[9],>100 µM
same,CC50,[10],> 100 µM
same,TGI,[10],41.60 µM
same,TGI,[11],83.20 µM
same,CC50,[11],> 100 µM
same,TGI,[12],25.00 µM
same,TGI,[13],28.70 µM
same,CC50,[14],> 100 µM
same,TGI,[14],2.22 µM
same,TGI,[15],>100 µM
same,TGI,[16],33.30 µM
same,CC50,[17],53.8 µM
same,TGI,[17],24.30 µM
same,TGI,[18],80.90 µM
same,TGI,[19],>100 µM
same,CC50,[20],> 100 µM
same,TGI,[20],>100 µM
same,TGI,[21],>100 µM
same,CC50,[22],> 100 µM
same,TGI,[22],>100 µM
same,CC50,[23],> 100 µM
same,TGI,[23],23.10 µM
same,TGI,[24],>100 µM
same,CC50,[24],> 100 µM
same,CC50,[25],> 100 µM
same,TGI,[25],30.70 µM
same,CC50,[26],> 100 µM
same,TGI,[26],26.80 µM
same,GI50,[27],4.46 µM
same,CC50,[27],> 100 µM
same,Mean TGI,[27],51.28 µM
same,TGI,[28],>100 µM
same,CC50,[29],> 100 µM
same,TGI,[29],14.30 µM
same,TGI,[30],84.90 µM
same,CC50,[31],> 100 µM
same,TGI,[31],>100 µM
same,TGI,[32],>100 µM
same,CC50,[32],> 100 µM
"O=C(c1cccc(Nc2ncnc3ccccc23)c1)N1CCN(c2ncc(Cc3ccccc3)cn2)CC1 [Compound 16, (4-(5-benzylpyrimidin-2-yl)piperazin-1-yl)(3-(quinazolin-4-ylamino)phenyl)methanone]",CC50,[1],> 100 µM
same,TGI,[1],6.61 µM
same,TGI,[2],3.47 µM
same,TGI,[3],2.69 µM
same,CC50,[4],7.59 µM
same,TGI,[4],1.95 µM
same,TGI,[5],1.82 µM
same,CC50,[6],> 100 µM
same,TGI,[6],7.08 µM
same,CC50,[7],39.8 µM
same,TGI,[7],6.17 µM
same,TGI,[8],1.20 µM
same,CC50,[9],> 100 µM
same,TGI,[9],8.91 µM
same,CC50,[10],> 100 µM
same,TGI,[10],11.48 µM
same,TGI,[11],9.33 µM
same,CC50,[11],> 100 µM
same,TGI,[12],3.55 µM
same,TGI,[13],2.45 µM
same,CC50,[14],> 100 µM
same,TGI,[14],3.47 µM
same,TGI,[15],4.90 µM
same,TGI,[16],2.69 µM
same,CC50,[17],6.61 µM
same,TGI,[17],2.40 µM
same,TGI,[18],1.86 µM
same,TGI,[19],8.13 µM
same,CC50,[20],5.25 µM
same,TGI,[20],2.82 µM
same,TGI,[21],4.47 µM
same,CC50,[22],8.13 µM
same,TGI,[22],3.09 µM
same,CC50,[23],> 100 µM
same,TGI,[23],2.24 µM
same,TGI,[24],6.46 µM
same,CC50,[24],> 100 µM
same,CC50,[25],> 100 µM
same,TGI,[25],4.27 µM
same,CC50,[26],5.37 µM
same,TGI,[26],2.63 µM
same,GI50,[27],1.05 µM
same,Mean TGI,[27],3.24 µM
same,TGI,[28],>100 µM
same,CC50,[29],3.89 µM
same,TGI,[29],0.60 µM
same,TGI,[30],2.95 µM
same,CC50,[31],> 100 µM
same,TGI,[31],3.31 µM
same,TGI,[32],7.59 µM
same,CC50,[32],5.62 µM
